From patent publication US7759355B2, “Adenosine A2A receptor antagonists for treating restless legs syndrome or nocturnal myoclonus” (Kyowa Hakko Kirin Co., Ltd., priority 2002, dated 2010)

How the values were obtained:
[1] = tested on: patients with advanced Parkinson's disease; animal models; conditions: animal models and early Phase II studies in patients with advanced Parkinson's disease; cited from earlier work
[2] = tested on: patients with moderate to severe RLS; experiment: Human clinical trial, RLS treatment with an A2A antagonist (IRLSRS total score and total PLMS index by polysomnography); assay type: in vivo; conditions: 80 mg once a day for 6 weeks
Method: In order to assess the efficacy of a representative A2A antagonist in treating RLS, a clinical trial was initiated and conducted in accordance with standard procedures. Briefly, the total score in International RLS Rating Scale (IRLSRS) and total PLMS index (polysomnography; PLMS index represents the number of periodic limb movements per hour of sleep) of the patients were measured to evaluate the efficacy of Compound A in RLS [Understanding and Diagnosing Restless Legs Syndrome (2003), Restless Legs Syndrome Foundation, 819 Second Street, SW Rochester, Minn. 55902].
Scoring for IRLSRS was made according to the following Instructions for Examiner (Maximum IRLSRS total score is 40).
The Examiner was instructed to have the patient rate his/her symptoms for the following ten questions. The patient and not the examiner made the ratings, but the examiner was available to clarify any misunderstandings the patient may have had about the questions. Either the examiner or the patient marked the answers on the form. In questions 1, 2, 4, 5, 6, 9 and 10, the following scoring was used: (4) Very severe; (3) Severe; (2) Moderate; (1) Mild; and (0) None.
Patients diagnosed with idiopathic RLS were withheld from the medication from the time of screening until the end of treatment. After tapering all RLS medications, patients were screened for eligibility. At Week −2, patients were admitted to the clinic on the night preceding the visit day to be adapted to the sleep environment of the laboratory. After screening, IRLSRS total score and total PLMS index of the patients were measured on Day −1 in order to establish a baseline and to assess the range of RLS fluctuation. Only patients with moderate to severe RLS (15 and more IRLSRS total scores) were enrolled in the study.
Treatment with Compound A (80 mg, once a day) began on the day following Day −1 visit and continued for the next 6 weeks. The last dose of Compound A was taken on the day of Week 6 visit. At Week 8, patients received RLS assessments (IRLSRS total score and total PLMS index). The inhibition ratio for each score was calculated by the following equation. Inhibition Ratio(%)={[(Score at Day−1)−(Score at Week 8)]/(Score at Day−1)}×100

parkinsonian monkeys = conditions: Neurology, 52, 1673-1677 (1999); cited from earlier work
[3] = Week 8 vs Day-1 baseline, N = 4

Structure (SMILES)	Amelioration of Parkinsonian symptoms [1]	IRLSRS Total Score, Inhibition Ratio [2, 3]	Total PLMS Index, Inhibition Ratio [2, 3]	IRLSRS Total Score, Week 8, mean (SD) ([2]; assessed at Week 8, N = 4, baseline (Day-1) 32.5 (4.39), maximum score 40)	Total PLMS Index, Week 8, mean (SD) ([2]; assessed at Week 8, N = 4, baseline (Day-1) 45 (15.41), periodic limb movements per hour of sleep)	Effect on RLS symptoms ([2]; patients with moderate to severe RLS)	Hyperactivity and dyskinesia (parkinsonian monkeys)
CCn1c(=O)c2c(nc(/C=C/c3ccc(OC)c(OC)c3)n2C)n(CC)c1=O [Compound A, (E)-8-(3,4-dimethoxystyryl)-1,3-diethyl-7-methylxanthine]	efficacious in ameliorating Parkinsonian symptoms	29.2%	45.2%	23 (8.04)	24.67 (23.89)	relief of RLS symptoms and improvement	–
CCn1c(=O)c2c(nc(/C=C/c3ccc(OC)c(OC)c3)n2C)n(CC)c1=O [KW-6002]	–	–	–	–	–	–	without producing hyperactivity and provoking dyskinesia
